Reference: PubChem BioAssay (NCI)
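Dose response: 5 concentrations. Exposure: 48 h. Format: 96-well plates. Endpoint: linear interpolation; highest concentration if not reached. At the GI50, growth is halved. TGI: concentration producing complete growth inhibition.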

Tests used:
Experiment in all cases: growth of human tumour cells (NCI), 48 h
SF-539 CNS = test system: SF-539 CNS
UO-31 renal = test system: UO-31 renal
OVCAR-4 ovarian = test system: OVCAR-4 ovarian
A498 renal = test system: A498 renal
NCI-H23 lung = test system: NCI-H23 lung
OVCAR-5 ovarian = test system: OVCAR-5 ovarian
RPMI-8226 leukemia = test system: RPMI-8226 leukemia
MALME-3M melanoma = test system: MALME-3M melanoma
HOP-92 NSCLC = test system: HOP-92 NSCLC
SNB-19 CNS = test system: SNB-19 CNS

Row | SMILES | GI50 (SF-539 CNS) [µM] | TGI (SF-539 CNS) [µM] | GI50 (UO-31 renal) [µM] | TGI (UO-31 renal) [µM] | GI50 (OVCAR-4 ovarian) [µM] | TGI (OVCAR-4 ovarian) [µM] | GI50 (A498 renal) [µM] | TGI (A498 renal) [µM] | GI50 (NCI-H23 lung) [µM] | TGI (NCI-H23 lung) [µM] | GI50 (OVCAR-5 ovarian) [µM] | TGI (OVCAR-5 ovarian) [µM] | GI50 (RPMI-8226 leukemia) [µM] | TGI (RPMI-8226 leukemia) [µM] | GI50 (MALME-3M melanoma) [µM] | TGI (MALME-3M melanoma) [µM] | GI50 (HOP-92 NSCLC) [µM] | TGI (HOP-92 NSCLC) [µM] | GI50 (SNB-19 CNS) [µM] | TGI (SNB-19 CNS) [µM]
1 | Clc1cc2c(nn1)Nc1ccccc1S2 | > 100 | > 100 | > 100 | > 100 | > 100 | > 100 | > 100 | > 100 | > 100 | > 100 | > 100 | > 100 | > 100 | > 100 | > 100 | > 100 | > 100 | > 100 | > 100 | > 100
2 | COc1cccc(NC(=O)C(C)(C)C)c1SSc1c(NC(=O)C(C)(C)C)cccc1OC |  | 45.5 |  | > 88.9 |  | > 56.3 |  | > 100 |  | > 100 |  | 53.2 |  | 51 |  | > 63.4 |  | > 86 |  | > 100
3 | O=C(c1ccco1)c1c(C(F)(F)F)nc2ccc(C(F)(F)F)cc2[n+]1[O-] | 18.3 | 34.5 | 38.7 | > 100 | 24.1 | 68.6 | 42.4 | > 79.7 | > 80.4 | > 100 | 46.9 | > 100 | > 100 | > 100 | 20.8 | 47.7 | 21 | 49.2 | 27.5 | > 79.7
4 | C1COCCOCCOCCOCCOCCO1.[Cl][Sn]([Cl])([c]1ccccc1)[c]1ccccc1 | 2.94 | 8.53 | 14.1 | 27.2 | 12.3 | 26.3 | 3.12 | 11.9 | 2.97 | 8.84 | 17.8 | 31.6 | 2.02 | 6.15 | 1.99 | 3.82 | 2.26 | 4.52 | 6.48 | 14.5
5 | Cn1c(=O)c2ccc(-c3ccc(Br)cc3)nc2n(C)c1=O |  | > 100 |  | > 100 |  | > 100 |  | > 100 |  | > 100 |  | > 100 |  | > 100 |  | > 100 |  | > 100 |  | > 100
6 | CCCCCCCCCCCCCCCC(=O)N[C@H](/C=C/[C@H](O)CCCCCCCCCCCCC)CO | > 100 | > 100 | > 100 | > 100 | > 100 | > 100 | > 100 | > 100 | > 100 | > 100 | > 100 | > 100 | 0.884 | > 100 | > 100 | > 100 | > 100 | > 100 | > 100 | > 100
